Here are results for 6 cell lines from the supplement of paper PMC10307832.

What all share (experiment): relative viability (nuclei count vs DMSO), 5 days (fraction); higher = more cells survive
Compound in experiment [1]: O=C(C[C@H]1NCCC[C@@H]1O)Cn1cnc2cc(Br)c(Cl)cc2c1=O (racemic) [Halofuginone] + COc1cc2c(Oc3ccc(NC(=O)C4(C(=O)Nc5ccc(F)cc5)CC4)cc3F)ccnc2cc1OCCCN1CCOCC1 [Foretinib] (partner 0.25 µM)
The method, boiled down:
(§1)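 Values are medians from duplicate plates. Each reflects relative viability, defined as the nuclei count of treated wells over that of vehicle wells. Lung cancer cell lines in 1536-well plates were pin-tool dosed one day after seeding with one drug alone or with a fixed anchor-drug dose plus five library-drug doses (not always all listed) in √10 steps, then fixed, stained and imaged at 4× after 5 days.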

Compound in experiment [2]: O=C(C[C@H]1NCCC[C@@H]1O)Cn1cnc2cc(Br)c(Cl)cc2c1=O (racemic) [Halofuginone] + CS(=O)(=O)CCNCc1ccc(-c2ccc3ncnc(Nc4ccc(OCc5cccc(F)c5)c(Cl)c4)c3c2)o1 [Lapatinib] (partner 2 µM)
The method, boiled down: as §1

Compound in experiment [3]: O=C(C[C@H]1NCCC[C@@H]1O)Cn1cnc2cc(Br)c(Cl)cc2c1=O (racemic) [Halofuginone] + NC(=O)Nc1cc(-c2cccc(F)c2)sc1C(=O)N[C@H]1CCCNC1 [AZD7762] (partner 0.2 µM)
The method, boiled down: as §1

Compound in experiment [4]: O=C(C[C@H]1NCCC[C@@H]1O)Cn1cnc2cc(Br)c(Cl)cc2c1=O (racemic) [Halofuginone] + O=C(CCCCCCC(=O)Nc1ccccc1)NO [Vorinostat] (partner 1 µM)
The method, boiled down: as §1

On to NCI-H2347, for which the relative viability is 1.35 in experiment [1] (first compound 0.001 µM); 0.929 in experiment [1] (first compound 0.003162 µM); 0.994 in experiment [1] (first compound 0.01 µM); 0.841 in experiment [1] (first compound 0.03162 µM); 1 in experiment [1] (first compound 0.1 µM); 1 in experiment [2] (first compound 0.001 µM). Also, the relative viability in experiment [2] (first compound 0.003162 µM) came out at 0.853; in experiment [2] (first compound 0.01 µM) it was 0.906; in experiment [2] (first compound 0.03162 µM), 0.918; in experiment [2] (first compound 0.1 µM) it was 0.65; in experiment [3] (first compound 0.001 µM), 0.673; in experiment [3] (first compound 0.003162 µM) it was 0.745. In addition, the relative viability turned out to be 0.681 in experiment [3] (first compound 0.01 µM); 0.822 in experiment [3] (first compound 0.03162 µM); 0.538 in experiment [3] (first compound 0.1 µM); 0.769 in experiment [4] (first compound 0.001 µM); 0.561 in experiment [4] (first compound 0.003162 µM); 0.55 in experiment [4] (first compound 0.01 µM). Moreover, the relative viability stood at 0.611 in experiment [4] (first compound 0.03162 µM) and 0.395 in experiment [4] (first compound 0.1 µM).

NCI-H2405: the relative viability in experiment [1] (first compound 0.001 µM) is 1.11; in experiment [1] (first compound 0.003162 µM), 1.1; in experiment [1] (first compound 0.01 µM), 1.03; in experiment [1] (first compound 0.03162 µM), 1.02; in experiment [1] (first compound 0.1 µM), 0.888; in experiment [2] (first compound 0.001 µM), 1.14. Also, the relative viability in experiment [2] (first compound 0.003162 µM) was determined as 1.01; in experiment [2] (first compound 0.01 µM), 1.02; in experiment [2] (first compound 0.03162 µM), 1.02; in experiment [2] (first compound 0.1 µM), 0.861; in experiment [3] (first compound 0.001 µM) it was 0.79; in experiment [3] (first compound 0.003162 µM), 0.881. For the same cell line, the relative viability in experiment [3] (first compound 0.01 µM) turned out to be 0.674; in experiment [3] (first compound 0.03162 µM), 0.678; in experiment [3] (first compound 0.1 µM), 0.541; in experiment [4] (first compound 0.001 µM), 1.07; in experiment [4] (first compound 0.003162 µM) it was 1.06; in experiment [4] (first compound 0.01 µM) it was 1.02. Further, the relative viability was found to be 0.958 in experiment [4] (first compound 0.03162 µM) and 0.577 in experiment [4] (first compound 0.1 µM).

As for NCI-H3122, the relative viability in experiment [1] (first compound 0.001 µM) amounted to 0.931; in experiment [1] (first compound 0.003162 µM) it was 0.946; in experiment [1] (first compound 0.01 µM), 0.963; in experiment [1] (first compound 0.03162 µM) it was 0.96; in experiment [1] (first compound 0.1 µM), 0.987; in experiment [2] (first compound 0.001 µM), 1.02. The relative viability in experiment [2] (first compound 0.003162 µM) was 1.05; in experiment [2] (first compound 0.01 µM), 0.975; in experiment [2] (first compound 0.03162 µM) it was 0.987; in experiment [2] (first compound 0.1 µM), 1.04; in experiment [3] (first compound 0.001 µM) it was 0.937; in experiment [3] (first compound 0.003162 µM) it was 1.09. Moreover, the relative viability in experiment [3] (first compound 0.01 µM) was determined as 0.985; in experiment [3] (first compound 0.03162 µM), 0.94; in experiment [3] (first compound 0.1 µM), 0.922; in experiment [4] (first compound 0.001 µM) it was 0.924; in experiment [4] (first compound 0.003162 µM) it was 1.13; in experiment [4] (first compound 0.01 µM), 0.938. Also, the relative viability in experiment [4] (first compound 0.03162 µM) came to 1.01; in experiment [4] (first compound 0.1 µM), 1.06.

Take PC-3 [JPC-3]: the relative viability in experiment [1] (first compound 0.001 µM) amounted to 1.02; in experiment [1] (first compound 0.003162 µM), 1.04; in experiment [1] (first compound 0.01 µM) it was 0.981; in experiment [1] (first compound 0.03162 µM), 0.996; in experiment [1] (first compound 0.1 µM), 1.08; in experiment [2] (first compound 0.001 µM) it was 0.466. Also, the relative viability stood at 0.428 in experiment [2] (first compound 0.003162 µM); 0.436 in experiment [2] (first compound 0.01 µM); 0.511 in experiment [2] (first compound 0.03162 µM); 0.461 in experiment [2] (first compound 0.1 µM); 0.881 in experiment [3] (first compound 0.001 µM); 0.933 in experiment [3] (first compound 0.003162 µM). Also, the relative viability amounted to 0.669 in experiment [3] (first compound 0.01 µM); 0.783 in experiment [3] (first compound 0.03162 µM); 0.499 in experiment [3] (first compound 0.1 µM); 0.84 in experiment [4] (first compound 0.001 µM); 0.769 in experiment [4] (first compound 0.003162 µM); 0.693 in experiment [4] (first compound 0.01 µM). In addition, the relative viability in experiment [4] (first compound 0.03162 µM) stood at 0.929; in experiment [4] (first compound 0.1 µM), 0.683.

As to PC-14, the relative viability amounted to 0.937 in experiment [1] (first compound 0.001 µM); 0.977 in experiment [1] (first compound 0.003162 µM); 0.859 in experiment [1] (first compound 0.01 µM); 0.903 in experiment [1] (first compound 0.03162 µM); 0.8 in experiment [1] (first compound 0.1 µM); 0.325 in experiment [2] (first compound 0.001 µM). For the same cell line, the relative viability in experiment [2] (first compound 0.003162 µM) amounted to 0.311; in experiment [2] (first compound 0.01 µM), 0.343; in experiment [2] (first compound 0.03162 µM), 0.419; in experiment [2] (first compound 0.1 µM), 0.313; in experiment [3] (first compound 0.001 µM), 0.435; in experiment [3] (first compound 0.003162 µM), 0.409. Further, the relative viability came to 0.381 in experiment [3] (first compound 0.01 µM); 0.366 in experiment [3] (first compound 0.03162 µM); 0.198 in experiment [3] (first compound 0.1 µM); 0.803 in experiment [4] (first compound 0.001 µM); 0.626 in experiment [4] (first compound 0.003162 µM); 0.646 in experiment [4] (first compound 0.01 µM). Besides, the relative viability in experiment [4] (first compound 0.03162 µM) is 0.292; in experiment [4] (first compound 0.1 µM) it was 0.0442.

Regarding RERF-LC-KJ, the relative viability in experiment [1] (first compound 0.001 µM) was determined as 0.902; in experiment [1] (first compound 0.003162 µM), 1.01; in experiment [1] (first compound 0.01 µM) it was 0.967; in experiment [1] (first compound 0.03162 µM), 0.853; in experiment [1] (first compound 0.1 µM) it was 0.815; in experiment [2] (first compound 0.001 µM), 0.951. Further, the relative viability in experiment [2] (first compound 0.003162 µM) is 0.888; in experiment [2] (first compound 0.01 µM), 0.795; in experiment [2] (first compound 0.03162 µM), 0.833; in experiment [2] (first compound 0.1 µM) it was 0.874; in experiment [3] (first compound 0.001 µM) it was 1.1; in experiment [3] (first compound 0.003162 µM), 1.15. Moreover, the relative viability in experiment [3] (first compound 0.01 µM) is 1.05; in experiment [3] (first compound 0.03162 µM) it was 0.96; in experiment [3] (first compound 0.1 µM) it was 0.956; in experiment [4] (first compound 0.001 µM), 0.8; in experiment [4] (first compound 0.003162 µM), 0.675; in experiment [4] (first compound 0.01 µM), 0.605. Besides, the relative viability in experiment [4] (first compound 0.03162 µM) came out at 0.718; in experiment [4] (first compound 0.1 µM) it was 0.604.
